Test results from US5286729A, “Angiotensin II receptor blocking 2,3,6 substituted quinazolinones” (American Cyanamid Company, priority 1993, dated 1994).

Target: T1, Angiotensin II Receptor (Bos taurus, UniProt P25104)
T1 construct: The brownish tissue forming the adrenal cortex is scraped off and finely minced with scissors before homogenization; from tissue; host or cells: beef adrenal cortex, microsomal (100,000 x g) membranes; adrenals from a local slaughter house (Maxwell-Cohen)
T1 sequence (P25104 1-359): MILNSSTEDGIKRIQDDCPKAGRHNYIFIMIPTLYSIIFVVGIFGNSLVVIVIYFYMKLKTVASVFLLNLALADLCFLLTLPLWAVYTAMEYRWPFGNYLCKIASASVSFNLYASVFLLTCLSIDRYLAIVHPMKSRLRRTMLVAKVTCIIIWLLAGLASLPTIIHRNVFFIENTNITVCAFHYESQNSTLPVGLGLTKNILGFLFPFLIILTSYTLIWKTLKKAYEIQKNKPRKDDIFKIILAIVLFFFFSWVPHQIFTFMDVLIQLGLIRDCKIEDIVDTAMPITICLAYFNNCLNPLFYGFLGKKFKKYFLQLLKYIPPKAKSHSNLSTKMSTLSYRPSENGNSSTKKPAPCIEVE
Assay: Receptor Binding Assay, binding of [125I](Sar1,Ile8)AngII to beef adrenal cortex membranes
Conditions: beef adrenal membranes; [125I](Sar1,Ile8)AngII; 60 min, room temperature, pH 7.4
Text: Beef adrenals are obtained from a local slaughter house (Maxwell-Cohen). [^125 I](Sar^1,Ile^8)AngII, S.A. 2200 Ci/mmole, is purchased from Dupont (NEN®, Boston, Mass.).
Approximately sixteen (16) to twenty (20) beef adrenal glands are processed as follows: fresh adrenal glands received on crushed ice are cleaned of fatty tissues and the tough membranes encapsulating the glands are removed and discarded. The brownish tissue forming the adrenal cortex is scraped off and finely minced with scissors before homogenization. Care is taken to avoid contamination with medullary tissue during dissection. The scraped cortices are suspended in twenty volumes of an ice-cold buffer medium consisting of 10 mM Tris.HCl (pH 7.4 at 22° C.) and containing 1.0 mM EDTA and 0.2M sucrose. Unless otherwise indicated, all subsequent operations are done at 4° C. […] The homogenate is centrifuged first at low speed (3,000×g) for 10 min. […] The pelleted membrane is reconstituted in 50.0 mM Tris.HCl buffer containing 0.1 mM of phenylmethylsulfonyl fluoride (PMSF) to give approximately a protein concentration of 2.5 mg per ml of tissue suspension. The membrane preparation is finally aliquoted in 1.0 ml volumes and stored at -70° C. until use in the binding assays. […]

CCCCc1nc2ccc(COc3ccccn3)cc2c(=O)n1Cc1ccc(-c2ccccc2-c2nnn[nH]2)cc1.Cl [Example 12, 2-Butyl-6-[(2-pyridinyloxy)methyl]-3-[[2'-(1H-tetrazol-5-yl)[1,1'-biphenyl]-4-yl]methyl]-4(3H)-quinazolinone monohydrochloride]
IC50: 130 nM
